Experimental data taken from publication PMC7038953 (2020).

Tests used:
Assay in all cases: fluorescence light-up, plate reader
Settings in all cases: 100 mM K+ (KCl); 20 mM Tris-HCl, pH 7.8; 5 µM dye, 5 µM oligonucleotide; not an affinity constant
[1] = test system: TBA31 (DNA, G4) CACTGGTAGGTTGGTGTGGTTGGGGCCAGTG
[2] = test system: TBA15 (DNA, G4) GGTTGGTGTGGTTGG
[3] = test system: TBA25 (DNA, G4) TGGTAGGTTGGTGTGGTTGGGGCCA
[4] = test system: ON31 (RNA, G4) CACUGGUAGGUUGGUGUGGUUGGGGCCAGUG
[5] = test system: ON15 (RNA, G4) GGUUGGUGUGGUUGG
[6] = test system: Tel23a (DNA, G4) AGGGTTAGGGTTAGGGTTAGGGT
[7] = test system: TBA63 (DNA, G4) ATAAAATAAAAAATTACACTGGTAGGTTGGTGTGGTTGGGGCCAGTGTAATTTTTTATTTTAT
[8] = test system: ON1+2 (ON1-ON2 duplex) (DNA, duplex) ATAAAATAAAAAATTACACTGG/CCAGTGTAATTTTTTATTTTAT

Fluorescence Intensity Enhancement [1]	Fluorescence Intensity Enhancement [2]	Fluorescence Intensity Enhancement [3]	Fluorescence Intensity Enhancement [4]	Fluorescence Intensity Enhancement [5]	Fluorescence Intensity Enhancement [6]	SMILES	also measured
20.5 ± 0.22 fold	2.9 ± 0.11 fold	31.7 ± 0.40 fold	19.0 ± 0.25 fold	7.1 ± 0.09 fold	7.1 ± 0.16 fold	CC(=O)C1=N/C(=C\c2c[nH]c3ccccc23)C(=O)N1C	–
–	–	–	–	–	–	CN1/C(=C/c2cc[n+](C)cc2)Sc2ccccc21	binding [4]: yes; binding [5]: yes
7.4 ± 0.08 fold	2.0 ± 0.08 fold	–	–	–	–	CN1C(=O)/C(=C/c2ccc(O)cc2)N=C1/C=C/c1ccc(Br)cc1	–
–	–	–	2.5 ± 0.03 fold	–	–	CN1C(=O)/C(=C/c2ccc(O)cc2)N=C1/C=C/c1ccc(C(F)(F)F)cc1	–
12.3 ± 0.13 fold	–	20.6 ± 0.29 fold	–	–	–	CN1C(=O)/C(=C/c2ccc(O)cc2)N=C1/C=C/c1ccc(N(C)C)cc1	–
–	–	23.0 ± 0.25 fold	–	–	–	CN1C(=O)/C(=C/c2ccc(O)cc2)N=C1/C=C/c1ccccc1F	–
–	–	8.7 ± 0.17 fold	–	6.1 ± 0.10 fold	–	CN1C(=O)/C(=C/c2ccc(O)cc2)N=C1C(=O)c1ccccc1	–
–	–	–	11.0 ± 0.13 fold	4.7 ± 0.11 fold	–	CN1C(=O)/C(=C/c2ccccc2)N=C1Nc1ccccc1	–
16.5 ± 0.18 fold	3.3 ± 0.13 fold	–	6.8 ± 0.13 fold	–	6.2 ± 0.12 fold	COc1cc(/C=C2N=C(/C=C/c3ccncc3)N(C)C\2=O)cc(OC)c1O	–
18.8 ± 0.28 fold	2.1 ± 0.12 fold	19.1 ± 0.21 fold	–	–	12.4 ± 0.19 fold	Cc1ccc(/C(O)=C/C2=NC(=C\c3ccc(O)cc3)/C(=O)N2C)cc1	Fluorescence Intensity Enhancement [7]: 12.1 ± 0.15 fold; Fluorescence Intensity Enhancement [8]: 4.0 ± 0.09 fold
